Data published in patent US20240299359A1, “PHARMACEUTICAL COMPOSITION FOR ANIMALS CONTAINING 5-HYDROXY-METHYLIMIDAZOLIDINE-2,4-DIONE COMPOUND AS ACTIVE INGREDIENT” (KYONGBO PHARM. CO., LTD., priority 2021, published 2024).
Several values for one entry are separate records, joined by “and”; a condition that tells them apart may be missing. Equal entries are not always repeated.

System: beagles
Assay: 13-week repeated oral toxicity: hematological test
Type: in vivo, beagle
Method: Fasting was conducted the day before administration (blood test date, pre), the 4th week (day 29) after administration, the 8th week (day 57) after administration, and the 13th week (day 92) after administration, and when the remaining feed was present in the feed container 3 hours after feeding on the day of fasting, it was removed.
All subjects were fasted for 16 hours and measurements were then performed pre (before administration), 4 weeks (day 29) after administration, 8 weeks (day 57) after administration, and 13 weeks (day 92) after administration. Within 3 hours after 2 to 3 ml of blood collected from the jugular vein of each subject was injected into a CBC bottle containing EDTA, RBC, HGB, HCT, RBC indices (MCV, MCH, MCHC), and platelet count and WBC differential count were measured using an automatic hematometer.

[1] = G3 500 mg/kg, repeated administration for 13 weeks, female, group mean
[2] = G3 500 mg/kg, repeated administration for 13 weeks, female, individual animals
[3] = G3 500 mg/kg, repeated administration for 13 weeks, male, group mean
[4] = G3 500 mg/kg, repeated administration for 13 weeks, male, individual animals
[5] = G4 1,000 mg/kg group, female (F10-F12, Mean), before administration (day 0)
[6] = G4 1,000 mg/kg group, female (F10-F12, Mean), before administration (day 0), mean
[7] = G4 1,000 mg/kg group, male (M10-M12, Mean), before administration (day 0)
[8] = G4 1,000 mg/kg group, male (M10-M12, Mean), before administration (day 0), mean
[9] = G4 1,000 mg/kg, repeated administration for 13 weeks, female, group mean
[10] = G4 1,000 mg/kg, repeated administration for 13 weeks, female, individual animals
[11] = G4 1,000 mg/kg, repeated administration for 13 weeks, male, group mean
[12] = G4 1,000 mg/kg, repeated administration for 13 weeks, male, individual animals

CN1C(=O)NC(=O)C1O (stereo not drawn) [KBP-001, 5-hydroxy-1-methylimidazolidine-2,4-dione]
MCH [1]: 23.5 pg | MCHC [1]: 33.37 g/dL | MCV [1]: 70.2 fL | Retic [1]: 0.59% | WBC Differential Counting(%) Baso [1]: 0.43% | WBC Differential Counting(%) Eos [1]: 3.03% | WBC Differential Counting(%) Lymph [1]: 33.40% | WBC Differential Counting(%) Mono [1]: 4.37% | WBC Differential Counting(%) Neut [1]: 58.50% | HCT [2]: 42.0% and 49.4% and 52.6% | HGB [2]: 14.2 g/dL and 16.3 g/dL and 17.5 g/dL | MCH [2]: 23.8 pg and 23.9 pg and 22.7 pg | MCHC [2]: 33.7 g/dL and 33.1 g/dL and 33.3 g/dL | MCV [2]: 70.4 fL and 72 fL and 68.2 fL | Retic [2]: 0.84% and 0.40% and 0.53% | WBC Differential Counting(%) Baso [2]: 0.3% and 0.5% and 0.4% | WBC Differential Counting(%) Eos [2]: 3.2% and 2.8% and 3.1% | WBC Differential Counting(%) Lymph [2]: 37.9% and 30.3% and 32.0% | WBC Differential Counting(%) Mono [2]: 4.3% and 3.5% and 5.2% | WBC Differential Counting(%) Neut [2]: 62.4% | HCT [3]: 48.10% | HGB [3]: 16.27 g/dL | MCH [3]: 23.8 pg | MCHC [3]: 33.83 g/dL | MCV [3]: 70.4 fL | Retic [3]: 0.41% | WBC Differential Counting(%) Baso [3]: 1.10% | WBC Differential Counting(%) Eos [3]: 5.07% | WBC Differential Counting(%) Lymph [3]: 30.00% | WBC Differential Counting(%) Mono [3]: 7.23% | WBC Differential Counting(%) Neut [3]: 55.697% | HCT [4]: 42.2% and 49.5% and 52.6% | HGB [4]: 14.2 g/dL and 16.9 g/dL and 17.7 g/dL | MCH [4]: 23.5 pg and 24.4 pg and 23.6 pg | MCHC [4]: 33.7 g/dl (2×) and 34.1 g/dl | MCV [4]: 70 fL and 71.5 fL and 69.9 fL | Retic [4]: 0.54% and 0.46% and 0.23% | WBC Differential Counting(%) Baso [4]: 0.3% and 0.4% and 2.6% | WBC Differential Counting(%) Eos [4]: 3.9% and 7.5% and 3.8% | WBC Differential Counting(%) Lymph [4]: 23.4% and 27.1% and 39.5% | WBC Differential Counting(%) Mono [4]: 7.8% (2×) and 6.1% | WBC Differential Counting(%) Neut [4]: 64.3% and 56.8% and 46.8% | HCT [5]: 47.7% and 44.4% and 48.4% | HGB [5]: 16.1 g/dL and 14.9 g/dL and 16.2 g/dL | MCH [5]: 22.9 pg and 23.2 pg and 22.2 pg | MCHC [5]: 33.7 g/dL and 33.5 g/dL | MCV [5]: 68 fL and 69.2 fL and 66.3 fL | Retic [5]: 1.79% and 1.14% and 0.92% | WBC Differential Counting Baso [5]: 0.5% and 0.7% and 0.9% | WBC Differential Counting Eos [5]: 3.8% and 3.2% and 2.1% | WBC Differential Counting Lymph [5]: 30.9% and 31.1% and 43.6% | WBC Differential Counting Mono [5]: 4.6% and 4.0% and 5.5% | WBC Differential Counting Neut [5]: 59.3% and 60.5% and 47.3% | HCT [6]: 39.40% | HGB [6]: 13.17 g/dL | MCH [6]: 18.4 pg | MCHC [6]: 25.57 g/dL | MCV [6]: 55.4 fL | Retic [6]: 0.77% | WBC Differential Counting Baso [6]: 0.74% | WBC Differential Counting Eos [6]: 3.70% | WBC Differential Counting Lymph [6]: 28.17% | WBC Differential Counting Mono [6]: 4.91% | WBC Differential Counting Neut [6]: 46.85% | HCT [7]: 45.1% and 46.8% and 43.2% | HGB [7]: 15.0 g/dL and 15.6 g/dL and 14.5 g/dL | MCH [7]: 22.4 pg and 22.5 pg and 21.7 pg | MCHC [7]: 33.2 g/dL and 33.3 g/dL and 33.6 g/dL | MCV [7]: 67.6 fL and 67.4 fL and 64.7 fL | Retic [7]: 0.51% and 0.65% and 0.56% | WBC Differential Counting Baso [7]: 0.8% and 0.4% and 0.7% | WBC Differential Counting Eos [7]: 3.5% and 3.9% and 4.8% | WBC Differential Counting Lymph [7]: 34.8% and 31.7% and 35.5% | WBC Differential Counting Mono [7]: 6.5% and 7.8% and 4.5% | WBC Differential Counting Neut [7]: 53.8% and 55.9% and 54.0% | HCT [8]: 39.19% | HGB [8]: 13.07 g/dL | MCH [8]: 18.2 pg | MCHC [8]: 27.30 g/dL | MCV [8]: 54.9 fL | Retic [8]: 0.74% | WBC Differential Counting Baso [8]: 0.78% | WBC Differential Counting Eos [8]: 3.68% | WBC Differential Counting Lymph [8]: 28.23% | WBC Differential Counting Mono [8]: 5.10% | WBC Differential Counting Neut [8]: 46.56% | HCT [9]: 41.40% | HGB [9]: 14.00 g/dL | MCH [9]: 23.3 pg | MCHC [9]: 33.83 g/dL | MCV [9]: 68.8 fL | Retic [9]: 0.36% | WBC Differential Counting(%) Baso [9]: 0.40% | WBC Differential Counting(%) Eos [9]: 2.07% | WBC Differential Counting(%) Lymph [9]: 36.50% | WBC Differential Counting(%) Mono [9]: 4.57% | WBC Differential Counting(%) Neut [9]: 55.93% | HCT [10]: 39.9% (2×) and 44.4% | HGB [10]: 13.4 g/dL and 13.6 g/dL and 15.0 g/dL | MCHC [10]: 33.5 g/dL and 34.2 g/dL and 33.8 g/dL | MCV [10]: 69.5 fL and 68.2 fL and 68.7 fL | Retic [10]: 0.53% and 0.27% and 0.28% | WBC Differential Counting(%) Baso [10]: 0.4% and 0.5% and 0.3% | WBC Differential Counting(%) Eos [10]: 3.1% and 0.8% and 2.3% | WBC Differential Counting(%) Lymph [10]: 31.4% and 42.6% and 35.8% | WBC Differential Counting(%) Mono [10]: 3.9% (2×) and 5.9% | WBC Differential Counting(%) Neut [10]: 60.7% and 51.8% and 55.3% | HCT [11]: 46.33% | HGB [11]: 15.80 g/dL | MCH [11]: 23.4 pg | MCHC [11]: 34.07 g/dL | MCV [11]: 68.6 fL | Retic [11]: 0.31% | WBC Differential Counting(%) Baso [11]: 0.43% | WBC Differential Counting(%) Eos [11]: 4.73% | WBC Differential Counting(%) Lymph [11]: 32.17% | WBC Differential Counting(%) Mono [11]: 6.07% | WBC Differential Counting(%) Neut [11]: 56.33% | HCT [12]: 43.1% and 47.6% and 48.3% | HGB [12]: 14.4 g/dL and 16.9 g/dL and 16.1 g/dL | MCH [12]: 23.3 pg and 24.5 pg and 22.3 pg | MCHC [12]: 33.3 g/dL and 35.5 g/dL and 33.4 g/dL | MCV [12]: 70 fL and 69.1 fL and 66.8 fL | Retic [12]: 0.27% and 0.32% and 0.33% | WBC Differential Counting(%) Baso [12]: 0.5% and 0.4% (2×) | WBC Differential Counting(%) Eos [12]: 4.0% and 4.4% and 5.8% | WBC Differential Counting(%) Lymph [12]: 33.7% and 29.5% and 33.2% | WBC Differential Counting(%) Mono [12]: 5.8% and 6.8% and 5.6% | WBC Differential Counting(%) Neut [12]: 55.7% and 58.6% and 54.7%
